Measurements from patent US20220395575A1, “COMBINATION THERAPY WITH PROTEIN KINASE B ACTIVATION INHIBITOR TO TREAT CANCER” (H. LEE MOFFITT CANCER CENTER AND RESEARCH INSTITUTE, INC., priority 2019, published 2022).

Legend:
Format in all cases: cell-based
Details in all cases: in combination with Akt activation inhibitor TCN-P
[1] = system: HL60 human leukemic cells; test: viability of HL60 human leukemic cells, combination with TCN-P
[2] = system: U937 human leukemic cells; test: viability of U937 human leukemic cells, combination with TCN-P
[3] = system: THP1 human leukemic cells; test: viability of THP1 human leukemic cells, combination with TCN-P

Measured: synergy with TCN-P to inhibit viability

C#Cc1cccc(Nc2ncnc3cc(OC)c(OCCCCCCC(=O)NO)cc23)c1 [CUDC-101]
synergizes with TCN-P: all assays above

Cc1cnc(NC(=O)Nc2cc(Br)c(C)cc2OC[C@@H]2CNCCO2)cn1 [LY2603618, rabusertib]
synergizes with TCN-P: all assays above
